The values below come from patent US20190216767A1, “TOPICAL THERAPY FOR THE TREATMENT OF SKIN KERATOSES USING NANOPARTICLES OF TAXANES” (DFB SORIA, LLC, priority 2017, published 2019).

Molecules are shown by their SMILES. Read-outs that look alike come from different tables or passages of the source. Some results are limits rather than exact numbers.

For data set [1] the following is noted: methanol/water 15/85 (v/v), 37° C., pH 7, 75 rpm, cited from earlier work.
Data set [2] can be described thus: Specific surface area (SSA) by BET isotherm. The format is physicochemical. As to conditions: BET isotherm method, nanoparticle API lot. An excerpt: (§1) Taxane nanoparticles produced by various supercritical carbon dioxide particle size reduction methods can have unique physical characteristics as compared to taxane nanoparticles produced by conventional particle size reduction methods using physical impacting or grinding, e.g., wet or dry milling, micronizing, disintegrating, comminuting, microfluidizing, or pulverizing. […] This bulk density range is generally lower than the bulk density of taxane particles produced by conventional means, and the SSA is generally higher than the SSA of taxane particles produced by conventional means. […] As used herein, the “specific surface area (SSA)” is the total surface area of the taxane nanoparticle per unit of taxane mass as measured by the Brunauer-Emmett-Teller (“BET”) isotherm by the following method: a known mass between 200 and 300 mg of the analyte is added to a 30 mL sample tube. […] The automated test is then carried out using the BETWIN® software package and the surface area of each sample is subsequently calculated. The bulk density measurement can be conducted by pouring the taxane nanoparticles into a graduated cylinder without tapping at room temperature, measuring the mass and volume, and calculating the bulk density.

Data set [3] can be described thus: Particle size of paclitaxel nanoparticles lots (ACCUSIZER 780). Type of data set: physicochemical. The following applies: nanoparticle API lot. On the procedure:
Max. Concentration: 9000 particles/mL, No. containers: 1, Sensor Range: Summation, Lower Detection Limit: 0.5 μm, Flow Rate: 30 mL/min, No. Analysis pulls: 4, Time between pulls: 1 sec, Pull volume: 10 mL, Tare Volume: 1 mL, Prime volume: 1 mL, Include First Pull: Not Selected.
Vortexed for 5-10 minutes and sonicated in a water batch for 1 minute.
Filled a plastic bottle with filtered (0.22 μm) 0.1% w/w SDS solution and analyzed the Background.

The nature of data set [4]: Bulk density (not tapped). The format is physicochemical. The following applies: nanoparticle API lot.
Text: as §1

The nature of data set [5]: Solubility of paclitaxel in various solvents (HPLC). The format is physicochemical.
Method: Step “d” was continued for each vial for a total of 48 hours.
The mark [6] stands for this setting: listed as paclitaxel nanoparticles lot used in the formulas listed in Table 3.
[7] abbreviates: listed as paclitaxel nanoparticles lot used in the formulas listed in Tables 16-19.

Regarding `CC(=O)O[C@@]12CO[C@@H]1C[C@H](O)[C@@]1(C)C(=O)[C@H](O)C3=C(C)[C@@H](OC(=O)[C@H](O)[C@@H](NC(=O)OC(C)(C)C)c4ccccc4)C[C@@](O)([C@@H](OC(=O)c4ccccc4)[C@H]21)C3(C)C` [Docetaxel nanoparticles, docetaxel], the “dissolution rate, % dissolved in 30 minutes” value in data set [1] (nanoparticles made by milling) was 9%; in data set [1] (nanoparticles made by the supercritical carbon dioxide method), 27%.
Turning to `CC(=O)O[C@H]1C(=O)[C@@]2(C)[C@H]([C@H](OC(=O)c3ccccc3)[C@]3(O)C[C@H](OC(=O)[C@H](O)[C@@H](NC(=O)c4ccccc4)c4ccccc4)C(C)=C1C3(C)C)[C@]1(OC(C)=O)CO[C@@H]1C[C@@H]2O` [Paclitaxel nanoparticles lot used in formulas listed in Tabl] [listing 1 of 2 here], in data set [2] (setting [6]), the “specific surface area (SSA)” value is on record as 41.24 m^2/g. Further, in data set [3], the “Particle size (number-weighted differential distribution) Mean” value turned out to be 0.861 μm, the “Particle size (number-weighted differential distribution) Median” value was 0.710 μm and the “Particle size (number-weighted differential distribution) Mode” value turned out to be 0.572 μm. Also, the “bulk density (not-tapped)” value in data set [4] (setting [6]) is 0.05 g/mL.
In the case of `CC(=O)O[C@H]1C(=O)[C@@]2(C)[C@H]([C@H](OC(=O)c3ccccc3)[C@]3(O)C[C@H](OC(=O)[C@H](O)[C@@H](NC(=O)c4ccccc4)c4ccccc4)C(C)=C1C3(C)C)[C@]1(OC(C)=O)CO[C@@H]1C[C@@H]2O` [Paclitaxel nanoparticles lot used in formulas listed in Tabl] [listing 2 of 2 here], the “specific surface area (SSA)” value in data set [2] (setting [7]) is 26.72 m^2/g. For the same compound, the “Particle size (number-weighted differential distribution) Mean” value in data set [3] came to 0.83 μm. In data set [4] (setting [7]), the “bulk density (not-tapped)” value was found to be 0.09 g/mL.
`CC(=O)O[C@H]1C(=O)[C@@]2(C)[C@H]([C@H](OC(=O)c3ccccc3)[C@]3(O)C[C@H](OC(=O)[C@H](O)[C@@H](NC(=O)c4ccccc4)c4ccccc4)C(C)=C1C3(C)C)[C@]1(OC(C)=O)CO[C@@H]1C[C@@H]2O` [Paclitaxel, paclitaxel]: the “Paclitaxel Solubility at RT” value in data set [5] (in Benzyl Alcohol, NF) was determined as 17.02% w/w; in data set [5] (in Diethylene Glycol Monoethyl Ether, NF (TRANSCUTOL P)), 33.10% w/w; in data set [5] (in Diisopropyl Adipate (CERAPHYL 230)) it was 3.51% w/w; in data set [5] (in Dimethyl Isosorbide), 38.22% w/w; in data set [5] (in Hexylene Glycol), 4.07% w/w; in data set [5] (in Isopropyl Myristate, NF), 0.048% w/w. Moreover, the “Paclitaxel Solubility at RT” value in data set [5] (in Medium Chain Triglycerides, NF) is 0.32% w/w; in data set [5] (in Mineral Oil, USP (heavy)) it was 0.3 ppm; in data set [5] (in Polyethylene Glycol 400, NF), 22.30% w/w; in data set [5] (in Propylene Carbonate), 4.74% w/w; in data set [5] (in Propylene Glycol, USP), 0.88% w/w; in data set [5] (in Purified Water, USP), under 0.05 ppm. Further, the “Paclitaxel Solubility at RT” value in data set [5] (in Purified Water, USP, listed as paclitaxel) is recorded as “less than 0.05 ppm”; in data set [5] (in Super Refined Oleic Acid, NF) it was 0.041% w/w; in data set [5] (in Super Refined Oleyl Alcohol, NF), 0.38% w/w.
